Experimental data reported in paper PMC6933084 (Journal of medicinal chemistry, 2019).

Key:
[1] = target: T1, WDR5 (Homo sapiens, UniProt P61964); conditions: for binding affinity for WDR5 (in words): FPA
[2] = target: T1, WDR5; assay: Thermal shift by differential scanning fluorimetry; type: binding; conditions: DSF; 10 μM, or ten-point dilution for 7k
[3] = target: WDR5-c-MYC (Homo sapiens, UniProt P61964); type: biochemical; conditions: HEK293 lysates; lowest concentration tested (6.25 μM)
[4] = target: WDR5-RBBP5 (Homo sapiens, UniProt P61964); type: biochemical; conditions: HEK293 lysates; lowest concentration tested (6.25 μM)
[5] = target: T1, WDR5; assay: biochemical

COc1ccccc1S(=O)(=O)Nc1cc(Cl)ccc1O [Compound 5a, N-(5-Chloro-2-hydroxyphenyl)-2-methoxybenzenesulfonamide]
binding affinity for WDR5 (in words) [1]: all binding affinity for WDR5 is lost

O=S(=O)(Nc1cc(S(F)(F)(F)(F)F)ccc1O)c1cc(Br)ccc1O [Compound 5k, 5-Bromo-2-hydroxy-N-(2-hydroxy-5-(pentafluorosulfanyl)phenyl)benzenesulfonamide]
improved binding affinity in comparison to 5l ([1]; FPA Kd ratio vs trifluoromethyl cyclopropane 5l): ~ 5 fold

O=C(O)c1cc(S(F)(F)(F)(F)F)cc(NS(=O)(=O)c2cc(Br)cc(Cl)c2O)c1O [Compound 6o, 3-((5-Bromo-3-chloro-2-hydroxyphenyl)sulfonamido)-2-hydroxy-5-(pentafluorosulfanyl)benzoic acid]
WDR5 stabilization by thermal shift (in words) [2]: largest ΔTm

N#CC1(c2cc(NS(=O)(=O)c3cc(Br)cc(Cl)c3O)c(O)c(C(=O)O)c2)CCC1 [Compound 6r, 3-((5-Bromo-3-chloro-2-hydroxyphenyl)sulfonamido)-5-(1-cyanocyclobutyl)-2-hydroxybenzoic acid]
WDR5 stabilization by thermal shift (in words) [2]: largest ΔTm
disruption of the association WDR5-c-MYC at the lowest concentration tested [3]: marked disruption
disruption of the association WDR5-RBBP5 at the lowest concentration tested [4]: marked disruption

N#CC1(c2cc(NS(=O)(=O)c3cc(Br)cc(Cl)c3O)c(O)c(C(=O)O)c2)CCCCC1 [Compound 6t, 3-((5-Bromo-3-chloro-2-hydroxyphenyl)sulfonamido)-5-(1-cyanocyclohexyl)-2-hydroxybenzoic acid]
WDR5 stabilization by thermal shift (in words) [2]: largest ΔTm

CNC(=O)c1cc(C2(C#N)CCC2)cc(NS(=O)(=O)c2cc(Br)cc(Cl)c2O)c1O [Compound 7k, 3-((5-Bromo-3-chloro-2-hydroxyphenyl)sulfonamido)-5-(1-cyanocyclobutyl)-2-hydroxy-N-methylbenzamide]
WDR5 stabilization by thermal shift (in words) [2]: concentration-dependent response

N#CC1(c2cc(NS(=O)(=O)c3cc(Br)ccc3O)c(O)c(C(=O)Nc3nc[nH]n3)c2)CCC1 [Compound 7n, 3-((5-Bromo-2-hydroxyphenyl)sulfonamido)-5-(1-cyanocyclobutyl)-2-hydroxy-N-(1H-1,2,4-triazol-3-yl)benzamide]
Kd [5]: 0.046 ± 0.014 µM

COCCNC(=O)c1cc(C2(C#N)CCC2)cc(NS(=O)(=O)c2cc(Br)ccc2O)c1O [Compound 7o, 3-((5-Bromo-2-hydroxyphenyl)sulfonamido)-5-(1-cyanocyclobutyl)-2-hydroxy-N-(2-methoxyethyl)benzamide]
Kd [5]: 0.757 ± 0.017 µM

COc1ccc(Br)cc1S(=O)(=O)Nc1cc(Cl)cc(S(C)(=O)=O)c1O [Compound 8, 5-Bromo-N-(5-chloro-2-hydroxy-3-(methylsulfonyl)phenyl)-2-methoxybenzenesulfonamide]
binding affinity for WDR5 (in words) [1]: sub-micromolar affinity

CNC(=O)c1cc(C2(C#N)CCC2)cc(NS(=O)(=O)c2cc(Br)ccc2OC)c1O [Compound 9, 3-((5-Bromo-2-methoxyphenyl)sulfonamido)-5-(1-cyanocyclobutyl)-2-hydroxy-N-methylbenzamide]
binding affinity for WDR5 (in words) [1]: sub-micromolar affinity
